Laboratory results published in PubChem BioAssay (NCI).
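Dose response: 5 concentrations. Exposure: 48 h. Format: 96-well plates. Endpoint: linear interpolation; highest concentration if not reached. TGI denotes the concentration required for complete inhibition of growth.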 Peptide text beside a SMILES is read from it. * marks the point of attachment. Boc = CC(C)(C)OC(=O)*; OBn = c1ccc(CO*)cc1

Key:
Assay in all cases: growth of human tumour cells (NCI), 48 h
[1] = test system: 786-0 renal
[2] = test system: COLO 205 colon
[3] = test system: HCT-116 colon
[4] = test system: HS 578T breast
[5] = test system: MCF7 breast
[6] = test system: MDA-N
[7] = test system: NCI/ADR-RES ovarian
[8] = test system: OVCAR-5 ovarian
[9] = test system: OVCAR-8 ovarian
[10] = test system: RXF 393 renal
[11] = test system: SF-539 CNS
[12] = test system: SK-MEL-28 melanoma
[13] = test system: SK-OV-3 ovarian
[14] = test system: SR leukemia
[15] = test system: SK-MEL-2 melanoma
[16] = test system: UACC-257 melanoma

Structure (SMILES)	TGI [1]	TGI [2]	TGI [3]	TGI [4]	TGI [5]	TGI [6]	TGI [7]	TGI [8]	TGI [9]	TGI [10]	TGI [11]	TGI [12]	TGI [13]	TGI [14]	TGI [15]	TGI [16]
COC1=C(N2CC2)C(=O)c2nc3n(c2C1=O)CCC3	1.03 µM	2.13 µM	1.93 µM	31.3 µM	4.08 µM	2.89 µM	3.53 µM	3.46 µM	4.7 µM	0.261 µM	7.79 µM	12.2 µM	3.04 µM	16.9 µM		
CC(NC(=O)CNC(=O)OC(C)(C)C)C(=O)NC(Cc1ccccc1)C(=O)OCc1ccccc1 (stereo not drawn) (Boc-Gly-Ala-Phe-OBn; configuration not given here)	> 100 µM	> 100 µM	> 100 µM	> 100 µM	> 100 µM	> 100 µM	> 100 µM	> 100 µM	> 100 µM	> 100 µM	> 100 µM	> 100 µM	> 100 µM	> 100 µM	> 100 µM	> 100 µM
Cc1ccc(S(=O)(=O)NC2C(=O)c3ccccc3C(=O)C2n2cnc3ccccc32)cc1 (configuration not stated)	> 100 µM	> 100 µM	> 100 µM	> 100 µM	> 100 µM	45.5 µM	73.6 µM	> 100 µM	> 100 µM	61.8 µM	62.6 µM	> 100 µM	> 100 µM	> 100 µM	51.7 µM	> 100 µM
COc1ccc(C(c2c[nH]c3ccc(Br)cc23)c2c[nH]c3ccc(Br)cc23)cc1	1.07 µM	0.347 µM	0.349 µM	3.81 µM	0.765 µM	0.552 µM	4.34 µM	1.2 µM		0.578 µM	2.06 µM	0.743 µM	2.58 µM	0.418 µM	1.22 µM	0.947 µM
O=C(CCc1ccc(O)cc1)NCCc1cccc(OCc2ccccc2)c1	> 100 µM	> 100 µM	50.6 µM	> 100 µM	86.6 µM	68.4 µM	> 100 µM	> 100 µM	> 100 µM	> 100 µM	31 µM	63.2 µM	> 100 µM	36.5 µM	39.1 µM	39.3 µM
C=C1CC(C)(COc2ccc3ccc(=O)oc3c2)OC1=O (configuration not stated)	7.42 µM	4.42 µM	6.38 µM	24.3 µM	5.65 µM	13.8 µM	11.2 µM	22.1 µM	19.7 µM		10.2 µM	11.2 µM	21.4 µM	> 20.7 µM	8.8 µM	2.58 µM
Cc1ccc(SCC(CF)OCn2cc(F)c(=O)[nH]c2=O)cc1 (configuration not stated)	> 100 µM		> 100 µM	> 100 µM	> 100 µM	> 100 µM	> 100 µM	> 100 µM	> 100 µM	> 100 µM	> 100 µM	> 100 µM	> 100 µM	> 100 µM	> 100 µM	> 100 µM
